Test results reported in article PMC8204306 (ACS Infectious Diseases, 2021).

Biological target: EchA19 (Mycobacterium tuberculosis, UniProt O53561)
Sequence (O53561 whole entry): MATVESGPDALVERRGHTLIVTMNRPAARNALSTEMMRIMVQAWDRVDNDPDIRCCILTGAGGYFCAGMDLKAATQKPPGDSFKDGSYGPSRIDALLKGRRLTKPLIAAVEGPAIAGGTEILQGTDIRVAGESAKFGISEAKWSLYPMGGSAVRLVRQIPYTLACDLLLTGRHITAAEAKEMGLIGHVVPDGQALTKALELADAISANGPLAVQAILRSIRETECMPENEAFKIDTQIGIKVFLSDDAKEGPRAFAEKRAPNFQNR

Structure (SMILES): C[C@H](/C=C/C(=O)SCCNC(=O)CCNC(=O)[C@H](O)C(C)(C)COP(=O)(O)OP(=O)(O)OC[C@H]1O[C@@H](n2cnc3c(N)ncnc32)[C@H](O)[C@@H]1OP(=O)(O)O)[C@H]1CC[C@H]2[C@@H]3CCC4=CC(=O)CC[C@]4(C)[C@H]3CC[C@]12C [3-OCDO-CoA]
- hydration product identified by MALDI MS and 1H NMR: both EchA19 and ChsH3 performed the hydration reaction on 3-OCDO-CoA
